Results from BindingDB's records for doi:10.1016/S0960-894X(01)80879-9 (1993).
Counter-ions that a name gives are not always drawn.

What was measured:
[1] = Binding affinity for dopamine receptor D2 in guinea pig striatal membrane using radiolabeled ligand [3H]spiperone
[2] = target: Sigma-1 receptor (Cavia porcellus); assay: Binding affinity for sigma receptor in guinea pig brain membrane using radiolabeled ligand [3H]-(+)-SKF- 10,047 was determined

Ki [1] [nM] | Ki [2] [nM] | SMILES
10000 | 9 | CCN(CC)CCC1(C)OC=C(c2ccccc2)C1=O (configuration not stated) [2-(2-Diethylamino-ethyl)-2-methyl-4-phenyl-furan-3-one; hydrochloride]
> 10000 | 44 | CCN(CC)CCC1(C)OC(c2ccccc2)=CC1=O (configuration not stated) [2-(2-Diethylamino-ethyl)-2-methyl-5-phenyl-furan-3-one; hydrochloride]
2690 | 223 | CN(C)CCC1(c2ccccc2)OC=C(c2ccccc2)C1=O (configuration not stated) [2-(2-Dimethylamino-ethyl)-2,4-diphenyl-furan-3-one; hydrochloride]
> 10000 | 16 | CCN(CC)CCCC1(C)OC=C(c2ccccc2)C1=O (configuration not stated) [2-(3-Diethylamino-propyl)-2-methyl-4-phenyl-furan-3-one; hydrochloride]
5320 | 6 | O=C1C=C(c2ccc(F)cc2)OC12CCN(CCc1ccccc1)CC2 [2-(4-Fluoro-phenyl)-8-phenethyl-1-oxa-8-aza-spiro[4.5]dec-2-en-4-one; hydrochloride]
217 | 24 | O=C1C(c2ccc(F)cc2)=COC12CCN(CCc1ccccc1)CC2 [3-(4-Fluoro-phenyl)-8-phenethyl-1-oxa-8-aza-spiro[4.5]dec-2-en-4-one; hydrochloride]
2070 | 30 | COc1ccc(C2=COC3(CCN(CCc4ccccc4)CC3)C2=O)cc1 [3-(4-Methoxy-phenyl)-8-phenethyl-1-oxa-8-aza-spiro[4.5]dec-2-en-4-one; hydrochloride]
3130 | 35 | O=C1C(c2ccc3ccccc3c2)=COC12CCN(CCc1ccccc1)CC2 [3-Naphthalen-2-yl-8-phenethyl-1-oxa-8-aza-spiro[4.5]dec-2-en-4-one; hydrochloride]
> 10000 | 4520 | O=C1C=C(c2ccccc2)OC12CCCN(Cc1ccccc1)C2 (configuration not stated) [7-Benzyl-2-phenyl-1-oxa-7-aza-spiro[4.5]dec-2-en-4-one; hydrochloride]
20000 | 32 | O=C1C(c2ccccc2)=COC12CCN(Cc1ccccc1)C2 (configuration not stated) [7-Benzyl-3-phenyl-1-oxa-7-aza-spiro[4.4]non-2-en-4-one; hydrochloride]
> 10000 | 695 | O=C1C(c2ccccc2)=COC12CCCN(Cc1ccccc1)C2 (configuration not stated) [7-Benzyl-3-phenyl-1-oxa-7-aza-spiro[4.5]dec-2-en-4-one; hydrochloride]
152 | 384 | O=C(CCCN1CCCC2(C1)OC(c1ccccc1)=CC2=O)c1ccc(F)cc1 (configuration not stated) [7-[4-(4-Fluoro-phenyl)-4-oxo-butyl]-2-phenyl-1-oxa-7-aza-spiro[4.5]dec-2-en-4-one; hydrochloride]
2110 | 232 | O=C1C(c2ccccc2)=COC12CCN(Cc1cccc(Cl)c1)CC2 [8-(3-Chloro-benzyl)-3-phenyl-1-oxa-8-aza-spiro[4.5]dec-2-en-4-one; hydrochloride]
32000 | 7500 | Cc1cc(CN2CCC3(CC2)OC=C(c2ccccc2)C3=O)on1 [8-(3-Methyl-isoxazol-5-ylmethyl)-3-phenyl-1-oxa-8-aza-spiro[4.5]dec-2-en-4-one; hydrochloride]
2420 | 3 | O=C1C(c2ccccc2)=COC12CCN(Cc1ccc(F)cc1)CC2 [8-(4-Fluoro-benzyl)-3-phenyl-1-oxa-8-aza-spiro[4.5]dec-2-en-4-one; hydrochloride]
4870 | 163 | C=CCN1CCC2(CC1)OC=C(c1ccccc1)C2=O [8-Allyl-3-phenyl-1-oxa-8-aza-spiro[4.5]dec-2-en-4-one; hydrochloride]
> 10000 | 1 | O=C1C=C(c2ccccc2)OC12CCN(Cc1ccccc1)CC2 [8-Benzyl-2-phenyl-1-oxa-8-aza-spiro[4.5]dec-2-en-4-one; hydrochloride]
1420 |  | O=C1C(c2ccc(F)cc2)=COC12CCN(Cc1ccccc1)CC2 [8-Benzyl-3-(4-fluoro-phenyl)-1-oxa-8-aza-spiro[4.5]dec-2-en-4-one; hydrochloride]
2370 | 4 | O=C1C(c2ccccc2)=COC12CCN(Cc1ccccc1)CC2 [8-Benzyl-3-phenyl-1-oxa-8-aza-spiro[4.5]dec-2-en-4-one; hydrochloride]
962 | 2 | O=C1C(c2ccc(F)cc2)=COC12CCN(CC1CCCCC1)CC2 [8-Cyclohexylmethyl-3-(4-fluoro-phenyl)-1-oxa-8-aza-spiro[4.5]dec-2-en-4-one; hydrochloride]
642 | 1 | O=C1C(c2ccccc2)=COC12CCN(CC1CCCCC1)CC2 [8-Cyclohexylmethyl-3-phenyl-1-oxa-8-aza-spiro[4.5]dec-2-en-4-one; hydrochloride]
7180 | 1 | O=C1C=C(c2ccccc2)OC12CCN(CCc1ccccc1)CC2 [8-Phenethyl-2-phenyl-1-oxa-8-aza-spiro[4.5]dec-2-en-4-one; hydrochloride]
70 | 17 | O=C(CCCN1CCC2(CC1)OC=C(c1ccccc1)C2=O)c1ccc(F)cc1 [8-[4-(4-Fluoro-phenyl)-4-oxo-butyl]-3-phenyl-1-oxa-8-aza-spiro[4.5]dec-2-en-4-one; hydrochloride]

SMILES | Ki [1] [nM] | Ki [2] [nM]
CN1CCC2(CC1)OC(C)(c1ccccc1)CC2=O (configuration not stated) [2,8-Dimethyl-2-phenyl-1-oxa-8-aza-spiro[4.5]decan-4-one; compound with (E)-but-2-enedioic acid] | 10000 | 214
O=C1C=C(c2ccccc2)OC12CCNCC2 [2-Phenyl-1-oxa-8-aza-spiro[4.5]dec-2-en-4-one; hydrochloride] | > 10000 | 462
CN1CCC2(CC1)OC=C(c1ccc(F)cc1)C2=O [3-(4-Fluoro-phenyl)-8-methyl-1-oxa-8-aza-spiro[4.5]dec-2-en-4-one; hydrochloride] | 2600 | 4000
O=C1C(c2ccccc2)=COC12CCNCC2 [3-Phenyl-1-oxa-8-aza-spiro[4.5]dec-2-en-4-one; hydrochloride] | 10000 | 6220
CN1CCC2(CC1)OC(c1ccccc1)=CC2=O [8-Methyl-2-phenyl-1-oxa-8-aza-spiro[4.5]dec-2-en-4-one; hydrochloride] | 2900 | 298
CN1CCC2(CC1)OC=C(c1ccccc1)C2=O [8-Methyl-3-phenyl-1-oxa-8-aza-spiro[4.5]dec-2-en-4-one; hydrochloride] | > 10000 | 580
